“Also recorded” adds a separate entry of the source.
What was measured:
[1] = system: AhR target genes CYP1A1, CYP1B1 and AHRR; assay: AhR target gene expression by q-RT-PCR in AML cells; type: cell-based, human
Description: RNA was isolated from primary AML samples using Trizol® reagent according to the manufacturer's instructions (Invitrogen/Life Technologies) and reverse transcribed into cDNA using MMLV reverse transcriptase and random primers. 2× Fast Master Mix® containing primers described below and probes from the Universal Probe Library® (Roche Diagnostics) were used for q-RT-PCR reactions which were amplified in 2-3 technical replicates on an ABI 7900HT Fast Real-Time® PCR System (Applied Biosystems/Life Technologies). Analysis was done with SDS 2.2.2 software (Applied Biosystems/Life Technologies) using the comparative delta CT method with GAPDH as reference gene. The following primers and probes were used: GAPDH: 5′-[…]-3′ (forward, SEQ ID NO:7), 5′-[…]-3′ (reverse, SEQ ID NO:8), probe 60, CYP1A1: 5′-[…]-3′ (forward, SEQ ID NO:9), 5′-[…]-3′ (reverse, SEQ ID NO:10), probe 59, CYP1B1: 5′-[…]-3′ (forward, SEQ ID NO:11), 5′-[…]-3′ (reverse, SEQ ID NO:12), probe 20, AHRR: 5′-[…]-3′ (forward, SEQ ID NO:13), 5′-[…]-3′ (reverse, SEQ ID NO:14), probe 72, AHR: 5′-[…]-3′ (forward, SEQ ID NO:15), 5′-[…]-3′ (reverse, SEQ ID NO:16), probe 33.

[2] = system: primary human AML specimens; assay: Validation: 7-day serum-free culture of diverse AML specimens (CD34+CD15− cells); type: cell-based; settings: for preventing AML cell differentiation in vitro, compound alone: 17 AML specimens, UM729 1 μM
Description: The following flow cytometry-antibodies were used: […] Statistical analyses of all in vitro experiments were done using Graphpad Prism v 6.01. […] Normalized CD34^+CD15^- percentages (td7/t0) were analyzed by Wilcoxon matched pairs signed rank test. Bars and error bars represent means and standard deviations (SD), or standard errors of the mean (SEM), as specified. Extreme limiting dilution analysis software (Hu, […]: extreme limiting dilution analysis for comparing depleted and enriched populations in stem cell and other assays. Journal of immunological methods 347, 70-78 (2009); http://bioinf.wehi.edu.au/software/elda/) was used to estimate LSC frequencies with 95% confidence intervals. In cases where all mice were positive or negative, one-sided confidence intervals were calculated. Differences in LSC frequencies between culture conditions were analyzed by Chi-square test.

AML cells (04H112) = assay: Cell proliferation assay (CellTrace Violet); type: cell-based, human; settings: 4-day culture; SR1 500 nM, UM729 1 μM
Description: CellTrace™ Violet (Invitrogen/Life Technologies C34557) was added at a final concentration of 3 μM to cell suspensions (10^7 cells/ml) containing SR1 (500 nM), UM729 (1 μM), both compounds, or vehicle DMSO (0.1%). CellTrace™ Violet labeled cells were stained with surface antibodies against human CD3, CD19, CD34, and CD33 on day 0, day 2, and day 4 prior to analysis on a BD Canto™ II flow cytometer. Data were analyzed using FlowJo™ version 7.6.5.

[3] = system: leukemia stem cells (LSC) of primary human AML samples; assay: Xenotransplantation of 4-day cultured AML cells into NSG mice (engraftment, LSC frequency); type: in vivo
Description: NOD.Cg-Prkdc^scid II2rg^tm1Wjl/SzJ (NSG) mice were purchased from Jackson Laboratory® (Bar Harbor, Me.) and bred in a pathogen-free animal facility. All AML samples were transplanted via the tail vein into 8-12 week old sublethally irradiated (250 cGy, ^137Cs-gamma source) NSG mice. […] On day 4, equivalents of the three highest to cell doses from each of the 3-4 flasks per condition were transplanted. The technician injecting fresh and cultured cells in NSG mice was not informed about the experimental conditions. […] On average 150,000 gated events were acquired. Mice were considered positive if human cells represented >1% of the bone marrow cell population. Mice were excluded only in case of obvious non-leukemia related death (e.g. first two weeks after irradiation). To discriminate between engraftment of leukemic and normal cells present in unsorted patient samples only recipients with proportions of CD45^+CD33^+ or CD45^+CD34^+ cells higher than proportions of CD19^+CD33^- or CD3^+ were considered to harbor cells of leukemic origin. Statistical analyses of all in vitro experiments were done using Graphpad Prism v 6.01. […] Normalized CD34^+CD15^- percentages (td7/t0) were analyzed by Wilcoxon matched pairs signed rank test. Bars and error bars represent means and standard deviations (SD), or standard errors of the mean (SEM), as specified. Extreme limiting dilution analysis software (Hu, […]: extreme limiting dilution analysis for comparing depleted and enriched populations in stem cell and other assays. Journal of immunological methods 347, 70-78 (2009); http://bioinf.wehi.edu.au/software/elda/) was used to estimate LSC frequencies with 95% confidence intervals. In cases where all mice were positive or negative, one-sided confidence intervals were calculated. Differences in LSC frequencies between culture conditions were analyzed by Chi-square test.

human AHR = target: T1, human AHR (Homo sapiens, UniProt P35869); settings: Mezrich et al. 2012; cited from earlier work
T1 sequence (P35869 11-848): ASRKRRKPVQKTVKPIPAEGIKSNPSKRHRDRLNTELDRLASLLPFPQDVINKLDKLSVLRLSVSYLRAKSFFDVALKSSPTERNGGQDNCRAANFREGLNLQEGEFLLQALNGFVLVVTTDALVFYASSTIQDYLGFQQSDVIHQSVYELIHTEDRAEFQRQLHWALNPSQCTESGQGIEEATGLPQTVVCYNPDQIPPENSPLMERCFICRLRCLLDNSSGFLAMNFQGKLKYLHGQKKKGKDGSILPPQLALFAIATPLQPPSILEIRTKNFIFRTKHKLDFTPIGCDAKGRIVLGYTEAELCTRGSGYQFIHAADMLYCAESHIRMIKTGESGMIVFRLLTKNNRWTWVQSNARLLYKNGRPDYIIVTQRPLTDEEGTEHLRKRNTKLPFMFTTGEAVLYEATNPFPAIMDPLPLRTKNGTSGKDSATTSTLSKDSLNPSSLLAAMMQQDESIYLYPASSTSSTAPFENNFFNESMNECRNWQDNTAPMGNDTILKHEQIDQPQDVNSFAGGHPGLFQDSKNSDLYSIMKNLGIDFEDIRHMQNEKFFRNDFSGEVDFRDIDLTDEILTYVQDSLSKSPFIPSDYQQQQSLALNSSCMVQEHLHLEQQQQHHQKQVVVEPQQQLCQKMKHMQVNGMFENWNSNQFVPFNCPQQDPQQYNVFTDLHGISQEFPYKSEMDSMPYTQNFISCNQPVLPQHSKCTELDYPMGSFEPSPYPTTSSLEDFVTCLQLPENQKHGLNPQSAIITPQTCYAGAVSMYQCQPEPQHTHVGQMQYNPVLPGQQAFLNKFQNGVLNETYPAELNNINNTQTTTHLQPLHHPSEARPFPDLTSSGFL

primary human AML cells [4] = assay: Secondary screen: dose response, five serial dilutions (CD34/CD15 flow cytometry); type: cell-based; parameters: key to 2ndary screen criteria fulfilled: 0 = no; 1 = yes
Description: In the primary screen cells were plated in transparent 384-wellplates (Greiner, 781182) at a density of 5,000 cells in 50 μl final volume per well. Compounds were tested at 2 μM (commercial libraries) or 1 μg/ml (Medicinal Chemistry Facility, IRIC). […] For validation experiments AML cells were grown in 384-well plates with 3-8 replicates per condition.
Flow cytometry was performed on an LSR™ II cytometer equipped with an HTS-device (BD Bioscience, Primary and Secondary screens and in vitro validation experiments) or on a BD Canto™ II cytometer (BD Bioscience, Xenotransplantation and CellTrace Violet™ experiments). Cells were stained for 30 minutes at 4° C. protected from light if not otherwise indicated (CellTrace Violet™ staining). The following flow cytometry-antibodies were used: CD45 Pacific Blue (BioLegend 304029), CD33 PE (BD Bioscience 555450), CD34 APC (BD Bioscience 555824), CD3 FITC (BD Bioscience 555332), CD19 PE-Cy7 (BD Bioscience 557835), CD15 PE (BD Bioscience 555401), and anti-mouse CD45.1 APC-efluor 730 (eBioscience 47-0453-82). CD34 intensities in flow cytometry plots were set at high levels on day 0 to allow tracing of non-predictable decreases of intensities during 7 days in culture.

AML 05H163 cells = assay: 5-day culture of AML 05H163 with AhR suppressors plus UM729; type: cell-based, human; settings: 05H163, 5 days
Description: AML cells were thawed in 37° C. water bath and 1:10 diluted in prewarmed Iscove's modified Dulbecco's medium (IMDM) containing 20% FBS and DNase 100 μg/ml. Cells were cultured in IMDM supplemented with 15% BIT (bovine serum albumin, insulin, transferrin, Stem Cell Technologies #09500), SCF 100 ng/ml (Shenandoah #100-04), FLT3L 50 ng/ml (Shenandoah #100-21), II-3 20 ng/ml (Shenandoah #100-80), G-CSF 20 ng/ml (Shenandoah #100-72), β-mercaptoethanol (10^−4M), gentamicin (50 μg/ml) and ciprofloxacin (10 μg/ml). […] When compounds were added to the culture medium, final DMSO concentrations were 0.1% in all in vitro experiments and 0.01% when cultured cells were transplanted into NSG-mice.
Flow cytometry was performed on an LSR™ II cytometer equipped with an HTS-device (BD Bioscience, Primary and Secondary screens and in vitro validation experiments) or on a BD Canto™ II cytometer (BD Bioscience, Xenotransplantation and CellTrace Violet™ experiments). Cells were stained for 30 minutes at 4° C. protected from light if not otherwise indicated (CellTrace Violet™ staining). The following flow cytometry-antibodies were used: CD45 Pacific Blue (BioLegend 304029), CD33 PE (BD Bioscience 555450), CD34 APC (BD Bioscience 555824), CD3 FITC (BD Bioscience 555332), CD19 PE-Cy7 (BD Bioscience 557835), CD15 PE (BD Bioscience 555401), and anti-mouse CD45.1 APC-efluor 730 (eBioscience 47-0453-82). […]

AML cells = assay: Morphology analysis (cytospins, Wright stain); type: cell-based, human; settings: 4-day culture; SR1 500 nM, UM729 1 μM
Description: 2-4×10^5 fresh and cultured cells were centrifuged onto cytospin slides, stained with Wright stain solution for 10 minutes and washed with PBS and water prior to analysis. Pictures of cytospins were taken with a Canon® EOS 5D camera connected to a Zeiss® Axio Imager microscope (40× objective).

primary human AML cells [5] = assay: Primary screen: differentiation of primary human AML cells in vitro (CD34/CD15, HTS flow cytometry)
Description: AML cells were thawed in 37° C. water bath and 1:10 diluted in prewarmed Iscove's modified Dulbecco's medium (IMDM) containing 20% FBS and DNase 100 μg/ml. […] When compounds were added to the culture medium, final DMSO concentrations were 0.1% in all in vitro experiments and 0.01% when cultured cells were transplanted into NSG-mice.
Compounds were tested at 2 μM (commercial libraries) or 1 μg/ml (Medicinal Chemistry Facility, IRIC). […] For validation experiments AML cells were grown in 384-well plates with 3-8 replicates per condition.
Flow cytometry was performed on an LSR™ II cytometer equipped with an HTS-device (BD Bioscience, Primary and Secondary screens and in vitro validation experiments) or on a BD Canto™ II cytometer (BD Bioscience, Xenotransplantation and CellTrace Violet™ experiments). Cells were stained for 30 minutes at 4° C. protected from light if not otherwise indicated (CellTrace Violet™ staining). […] CD34 intensities in flow cytometry plots were set at high levels on day 0 to allow tracing of non-predictable decreases of intensities during 7 days in culture.

[6] = at optimal concentration, compared to DMSO

## CC(C)n1cnc2c(NCCc3ccc(O)cc3)nc(-c3csc4ccccc34)nc21 [SR1, StemRegenin 1]
[1]; SR1 500 nM, TCDD 0.1, 1, 10 nM, n=13 samples
  upregulation of AhR target genes AHRR and CYP1A1 upon 24 h in vitro culture: effectively antagonized
[2]; 7-day culture, compared to input
  samples with net expansion of CD34+CD15− cells: 15/16
[2]; 7-day culture, maximum (AML 08H112)
  increase in CD34+CD15− cell numbers: up to 42 fold
[2]; 7-day culture, vs DMSO, P<0.0001 paired t-test
  impact on CD34+CD15− cell numbers: significant impact
[2]; 7-day culture, SR1 0.75-1 μM, C05 2 μM, DMSO 19% / 22%
  median CD34+CD15− percentage relative to uncultured cells: 72%
[2]; 7-day culture
  preventing AML cell differentiation in vitro, compound alone: superior to UM729
AML cells (04H112)
  distribution of cell generations / number of early cell divisions: no difference
[3]; cultures before transplantation, DMSO 6.2±3×10^6
  total viable cells per flask (median±SD) following 4-day culture: 4.8±2×10^6
[3]; sample 05H163, progeny of 2×10^6 input cells, SR1-supplemented culture
  engraftment (average): 50%
[3]; six samples, engraftment in NSG mice
  supporting LSC functional activity, SR1 alone versus UM729 alone: superior to UM729 in supporting LSC functional activity in four of six samples; also recorded: equally efficacious in two samples
[3]; six samples, 4-day culture with SR1 0.5-1 μM, NSG mice
  engraftment levels compared to control DMSO: higher engraftment levels

## Cc1cc(C)c(/C=C2\C(=O)Nc3ccccc32)[nH]1 [SU5416, 3-(3,5-dimethyl-1H-pyrrol-2-ylmethylene)-1,3-dihydro-indole-2-one]
Human AHR
  activation of the human AHR: potency approaching TCDD

## COC(=O)c1ccc2c(c1)[nH]c1ncnc(NCCCN3CCCCC3)c12 [UM0125729, methyl 4-((3-(piperidin-1-yl)propyl)amino)-9H-pyrimido[4,5-b]indole-7-carboxylate]
Primary human AML cells [4]; [6]
  % increase CD34+CD15− (%) 2ndary screen: 205.07%
  % increase CD34+CD15− (cell counts) 2ndary screen: 206.53%
Primary human AML cells [4]; ≧50% increase CD34+CD15− (%) and cell counts and ≧50% gated cells in at least one dose
  2ndary screen criteria fulfilled: 1
[1]; 24 h incubation, compared to DMSO, GAPDH control
  effect on AhR target genes (CYP1A1, CYP1B1, AHRR) expression: no effect
[2]; 7-day culture, CD34+CD15− percentage
  effect of adding UM729 to AhR suppressor-supplemented cultures: enhanced the effect of SR1 in all specimens
[2]; 7-day culture
  preventing AML cell differentiation in vitro, compound alone: most samples responded
[2]; 7 days in culture
  CD34+CD38− and CD34+CD38+ compartments, SR1 and UM729 compared to DMSO: benefitted
AML cells (04H112)
  distribution of cell generations / number of early cell divisions: did not affect
[3]; 4-day culture, NSG mice, most samples
  effect of adding UM729 to SR1- (or C05-) supplemented cultures on engraftment: increased engraftment levels, but not LSC frequency
AML 05H163 cells
  absolute numbers of CD34+CD15− cells, UM729 added compared to AhR suppressors alone: higher
AML cells
  typical morphologic signs of differentiation on cytospins: rarely seen
Primary human AML cells [5]; 2 μM (commercial libraries) or 1 μg/ml (IRIC)
  percent gated cells (viability): 78.40%
Primary human AML cells [5]; compared to DMSO
  % increase CD34+ (cell counts): 26.44%
  % increase CD34+CD15− (cell counts): 63.00%
Primary human AML cells [5]; compared to DMSO ((compound − DMSO)/DMSO*100)
  % increase CD34+CD15− (%): 47.24%
